Measurements: EPA's ToxRefDB 2

How the values were obtained:
[1] = test system: rat; conditions: Subchronic oral toxicity in rodents, fischer, Gavage/Intubation, dose end: 13 week
[2] = test system: rat; conditions: Sub-acute repeat dose toxicity; fischer; Oral; Gavage/Intubation; dose end: 14 day; group: systemic; systemic / hematology / leukocyte (wbc) count differential / leukocyte (wbc) + systemic / hematology / nucleated red blood cell (nrbc) / …
[3] = test system: rat; conditions: Carcinogenicity, other, Oral, Feed, dose end: 102 week, group: systemic
[4] = test system: rat; conditions: Subchronic oral toxicity in rodents, other, Feed, dose end: 10 week, group: systemic, systemic / in life observation / body weight / body weight gain
[5] = test system: rat; conditions: Prenatal developmental toxicity study, sprague dawley, Oral, Gavage/Intubation, dose end: 15 GD
[6] = test system: dog; conditions: Chronic toxicity, beagle, Oral, Capsule, dose end: 107 week, group: systemic
[7] = test system: mouse; conditions: Carcinogenicity, cd1, Oral, Feed, dose end: 104 week, group: systemic
[8] = test system: rat; conditions: Multigenerational reproductive toxicity study, wistar, Oral, Feed, dose end: 2 generation
[9] = test system: rat; conditions: Subchronic oral toxicity in rodents, sprague dawley, Feed, dose end: 90 day
[10] = test system: rat; conditions: Combined chronic toxicity/carcinogenicity, sprague dawley, Oral, Feed, dose end: 24 month, group: systemic
[11] = test system: rat; conditions: Multigenerational reproductive toxicity study, sprague dawley, Oral, Feed, dose end: 2 generation
[12] = test system: rat; conditions: Combined chronic toxicity/carcinogenicity, sprague dawley, Oral, Feed, dose end: 24 month, group: systemic; remark: listed apart in the source
[13] = test system: rat; conditions: Subchronic oral toxicity in rodents, sprague dawley, Feed, dose end: 90 day, group: systemic
[14] = test system: dog; conditions: Chronic toxicity; beagle; Oral; Feed; dose end: 52 week; group: systemic; systemic / clinical chemistry / aspartate aminotransferase (ast/sgot) / aspartate aminotransferase (ast/sgot) + systemic / clinical …
[15] = test system: dog; conditions: Subchronic oral toxicity in nonrodent, beagle, Feed, dose end: 90 day, group: systemic, systemic / hematology / leukocyte (wbc) count differential / leukocyte (wbc) + systemic / hematology / mean corpuscular hemoglobin …
[16] = test system: rabbit; conditions: Prenatal developmental toxicity study, new zealand white, Oral, Gavage/Intubation, dose end: 19 GD
[17] = test system: rat; conditions: Prenatal developmental toxicity study, sprague dawley, Oral, Gavage/Intubation, dose end: 15 GD; remark: listed apart in the source
[18] = group: cholinesterase, cholinesterase / cholinesterase / cholinesterase / cholinesterase (che)
[19] = group: systemic, systemic / hematology / hematocrit (hct) / hematocrit (hct) + systemic / hematology / hemoglobin (hgb) / hemoglobin (hgb) + systemic / in …
[20] = group: systemic, systemic / hematology / polychromasia / polychromasia
[21] = systemic / pathology microscopic / nose / inflammation
[22] = group: developmental, developmental / developmental malformation / bone / incomplete ossification + systemic / in life observation / body weight / fetal weight + …
[23] = group: maternal, reproductive / reproductive performance / fertility / fertility + reproductive / reproductive performance / resorptions / resorptions + …
[24] = systemic / organ weight / liver / relative to body weight
[25] = systemic / organ weight / liver / relative to body weight + systemic / clinical chemistry / alkaline phosphatase (alp/alk) / alkaline …
[26] = systemic / organ weight / liver / absolute + systemic / organ weight / adrenal gland / absolute + systemic / organ weight / adrenal gland / …
[27] = group: offspring, systemic / in life observation / body weight / offspring (pup) weight gain
[28] = group: parental, systemic / in life observation / body weight / body weight gain
[29] = group: cholinesterase, cholinesterase / cholinesterase / cholinesterase / plasma cholinesterase (che)
[30] = group: systemic, systemic / organ weight / thyroid gland / relative to body weight + systemic / pathology microscopic / kidney / eosinophilic focus + …
[31] = group: systemic, systemic / pathology microscopic / kidney / eosinophilic focus + systemic / pathology microscopic / kidney / hyaline droplet
[32] = systemic / pathology microscopic / thyroid gland / hyperplasia + systemic / pathology microscopic / thyroid gland / hypertrophy + systemic…
[33] = group: offspring, systemic / in life observation / body weight / offspring (pup) weight
[34] = systemic / in life observation / body weight / body weight
[35] = systemic / clinical chemistry / globulins / globulins + systemic / clinical chemistry / glucose / glucose + systemic / in life observation…
[36] = systemic / organ weight / spleen / absolute + systemic / organ weight / spleen / relative to body weight
[37] = group: developmental, systemic / in life observation / body weight / fetal weight + developmental / developmental malformation / other / other
[38] = group: maternal, reproductive / reproductive performance / aborted / aborted + systemic / in life observation / food consumption / food consumption + …
[39] = group: developmental, systemic / in life observation / body weight / fetal weight + developmental / developmental malformation / bone / unossified + developmental…
[40] = group: maternal, systemic / in life observation / body weight / body weight gain + systemic / in life observation / clinical signs / salivation + systemic / …

Q: For `Cc1cccc(C)c1N` [2,6-Dimethylaniline], which LEL [1, 18] is on record?
A: 160 mg/kg/day

Q: And the LOAEL [1, 18]?
A: > 310 mg/kg/day

Q: What about the NEL [1, 18] of the same molecule?
A: 80 mg/kg/day

Q: And the NOAEL [1, 18]?
A: ≥ 310 mg/kg/day

Q: What about the LOAEL [1, 19] of the same molecule?
A: 310 mg/kg/day

Q: And the NOAEL [1, 19]?
A: 160 mg/kg/day

Q: What about the LEL [1, 20] of the same molecule?
A: 20 mg/kg/day

Q: What about the NEL [1, 20] of the same molecule?
A: < 20 mg/kg/day

Q: What about the LEL [2] of the same molecule?
A: 310 mg/kg/day

Q: And the LOAEL [2]?
A: 310 mg/kg/day

Q: What about the NEL [2] of the same molecule?
A: 160 mg/kg/day

Q: What about the NOAEL [2] of the same molecule?
A: 160 mg/kg/day

Q: What about the LOAEL ([3]; systemic / in life observation / body weight / body weight gain) of the same molecule?
A: 50 mg/kg/day

Q: And the NOAEL ([3]; systemic / in life observation / body weight / body weight gain + systemic / pathology microscopic / adrenal gland / adenoma + systemic / …)?
A: 15 mg/kg/day

Q: And the LEL [3, 21]?
A: 15 mg/kg/day

Q: And the NEL [3, 21]?
A: < 15 mg/kg/day

Q: What about the LEL [4] of the same molecule?
A: 150 mg/kg/day

Q: And the LOAEL [4]?
A: 150 mg/kg/day

Q: And the NEL [4]?
A: 50 mg/kg/day

Q: And the NOAEL [4]?
A: 50 mg/kg/day

Q: `CC(C)N1C(=O)N(c2ccccc2)CSC1=NC(C)(C)C` [Buprofezin] was tested. Which LEL ([5]; group: developmental, developmental / developmental malformation / bone / incomplete ossification + developmental / developmental malformation / bone / unossified) did it give?
A: 200 mg/kg/day

Q: What about the LOAEL [5, 22] of the same molecule?
A: 800 mg/kg/day

Q: And the NEL [5, 22]?
A: 50 mg/kg/day

Q: What about the NOAEL [5, 22] of the same molecule?
A: 200 mg/kg/day

Q: And the LOAEL [5, 23]?
A: 800 mg/kg/day

Q: And the NEL [5, 23]?
A: 50 mg/kg/day

Q: What about the NOAEL [5, 23] of the same molecule?
A: 200 mg/kg/day

Q: And the LEL ([5]; group: maternal, systemic / in life observation / water consumption / water consumption)?
A: 200 mg/kg/day

Q: What about the LEL [6, 24] of the same molecule?
A: 2 mg/kg/day

Q: What about the NEL [6, 24] of the same molecule?
A: < 2 mg/kg/day

Q: And the LOAEL [6, 25]?
A: 20 mg/kg/day

Q: What about the NOAEL [6, 25] of the same molecule?
A: 2 mg/kg/day

Q: And the LOAEL ([7]; systemic / organ weight / liver / absolute)?
A: 17.4 mg/kg/day

Q: What about the NEL [7, 26] of the same molecule?
A: 1.82 mg/kg/day

Q: What about the NOAEL [7, 26] of the same molecule?
A: 1.82 mg/kg/day

Q: And the LEL ([7]; systemic / organ weight / liver / absolute + systemic / organ weight / liver / relative to body weight)?
A: 17.4 mg/kg/day

Q: And the LEL [8, 27]?
A: 81.5 mg/kg/day

Q: And the LOAEL [8, 27]?
A: 81.5 mg/kg/day

Q: And the NEL [8, 27]?
A: 7.89 mg/kg/day

Q: And the NOAEL [8, 27]?
A: 7.89 mg/kg/day

Q: What about the LEL [8, 28] of the same molecule?
A: 81.5 mg/kg/day

Q: And the LOAEL [8, 28]?
A: > 81.5 mg/kg/day

Q: What about the NEL [8, 28] of the same molecule?
A: 7.89 mg/kg/day

Q: And the NOAEL [8, 28]?
A: ≥ 81.5 mg/kg/day

Q: And the LEL [9, 29]?
A: 362 mg/kg/day

Q: And the LOAEL [9, 29]?
A: > 362 mg/kg/day

Q: What about the NEL [9, 29] of the same molecule?
A: 81.8 mg/kg/day

Q: What about the NOAEL [9, 29] of the same molecule?
A: ≥ 362 mg/kg/day

Q: What about the LOAEL [9, 30] of the same molecule?
A: 68.6 mg/kg/day

Q: What about the NOAEL [9, 30] of the same molecule?
A: 13 mg/kg/day

Q: What about the LEL [9, 31] of the same molecule?
A: 3.4 mg/kg/day

Q: What about the NEL [9, 31] of the same molecule?
A: < 3.4 mg/kg/day

Q: What about the LOAEL ([10]; systemic / pathology microscopic / thyroid gland / hyperplasia + systemic / pathology microscopic / thyroid gland / hypertrophy) of the same molecule?
A: 8.7 mg/kg/day

Q: And the LEL [10, 32]?
A: 8.7 mg/kg/day

Q: And the NEL [10, 32]?
A: 0.9 mg/kg/day

Q: And the NOAEL [10, 32]?
A: 0.9 mg/kg/day

Q: What does the source list for `COC(=O)c1ccccc1S(=O)(=O)NC(=O)N(C)c1nc(C)nc(OC)n1` [Tribenuron-methyl]?
A: LEL [11, 33]: 1.9 mg/kg/day; NEL [11, 33]: < 1.9 mg/kg/day; NOAEL [11, 27]: 1.9 mg/kg/day; LOAEL ([11]; group: offspring, systemic / in life observation / body weight / offspring (pup) weight gain + systemic / in life observation / body weight / offspring (pup) …): 19 mg/kg/day; LEL [11, 28]: 19 mg/kg/day; LOAEL [11, 28]: 21 mg/kg/day; NEL [11, 28]: 1.9 mg/kg/day; NOAEL ([11]; group: parental, systemic / in life observation / body weight / body weight gain + systemic / in life observation / body weight / body weight): 2.2 mg/kg/day; LEL [12, 34]: 1.25 mg/kg/day; LOAEL [12, 34]: 12.5 mg/kg/day; NEL [12, 34]: < 1.25 mg/kg/day; NOAEL ([12]; systemic / in life observation / body weight / body weight + systemic / pathology microscopic / mammary gland / adenocarcinoma + systemic / …): 1.25 mg/kg/day; LOAEL [13, 35]: 118 mg/kg/day; NOAEL [13, 35]: 7 mg/kg/day; LEL [13, 36]: 8 mg/kg/day; NEL [13, 36]: < 8 mg/kg/day; LEL [14]: 8.16 mg/kg/day; LOAEL [14]: 8.16 mg/kg/day; NEL [14]: 0.79 mg/kg/day; NOAEL [14]: 0.79 mg/kg/day; LEL [15]: 73.3 mg/kg/day; LOAEL [15]: > 73.3 mg/kg/day; NEL [15]: 14.9 mg/kg/day; NOAEL [15]: ≥ 73.3 mg/kg/day; LOAEL ([16]; group: developmental, systemic / in life observation / body weight / fetal weight): 80 mg/kg/day; LEL [16, 37]: 80 mg/kg/day; NEL [16, 37]: 20 mg/kg/day; NOAEL [16, 37]: 20 mg/kg/day; LOAEL ([16]; group: maternal, reproductive / reproductive performance / aborted / aborted + systemic / in life observation / food consumption / food consumption): 80 mg/kg/day; LEL [16, 38]: 80 mg/kg/day; NEL [16, 38]: 20 mg/kg/day; NOAEL [16, 38]: 20 mg/kg/day; LOAEL ([17]; group: developmental, systemic / in life observation / body weight / fetal weight + developmental / developmental malformation / bone / unossified): 125 mg/kg/day; LEL [17, 39]: 125 mg/kg/day; NEL [17, 39]: 20 mg/kg/day; NOAEL [17, 39]: 20 mg/kg/day; LEL [17, 40]: 125 mg/kg/day; LOAEL [17, 40]: 125 mg/kg/day; NEL [17, 40]: 20 mg/kg/day; NOAEL [17, 40]: 20 mg/kg/day
